According to ChEMBL document CHEMBL5723584 (2023):

Columns and labels:
[1] = biological target: Tyrosine-protein kinase Mer (Homo sapiens) (UniProt Q12866); assay: activity of Mer(h) at 1.0 µM in the Eurofins Kinase panel; conditions: Compound concentration 1.0 uM
[2] = biological target: Serine/threonine-protein kinase WNK4 (Homo sapiens) (UniProt Q96J92); assay: activity of WNK4(h) at 1.0 µM in the Eurofins Kinase panel; conditions: Compound concentration 1.0 uM
[3] = biological target: cGMP-dependent protein kinase 2 (Homo sapiens) (UniProt Q13237); assay: activity of PRKG2(h) at 1.0 µM in the Eurofins Kinase panel; conditions: Compound concentration 1.0 uM
[4] = biological target: Receptor-interacting serine/threonine-protein kinase 2 (Homo sapiens) (UniProt O43353); assay: activity of RIPK2(h) at 1.0 µM in the Eurofins Kinase panel; conditions: Compound concentration 1.0 uM
[5] = biological target: Protein-tyrosine kinase 6 (Homo sapiens) (UniProt Q13882); assay: activity of BRK(h) at 1.0 µM in the Eurofins Kinase panel; conditions: Compound concentration 1.0 uM
[6] = biological target: Serine/threonine-protein kinase SBK1 (Homo sapiens) (UniProt Q52WX2); assay: activity of SBK1(h) at 1.0 µM in the Eurofins Kinase panel; conditions: Compound concentration 1.0 uM
[7] = biological target: Ephrin type-A receptor 1 (Homo sapiens) (UniProt P21709); assay: activity of EphA1(h) at 1.0 µM in the Eurofins Kinase panel; conditions: Compound concentration 1.0 uM
[8] = biological target: Casein kinase I isoform gamma-2 (Homo sapiens) (UniProt P78368); assay: activity of CK1gamma2(h) at 1.0 µM in the Eurofins Kinase panel; conditions: Compound concentration 1.0 uM
[9] = biological target: Serine/threonine-protein kinase PAK 3 (Homo sapiens) (UniProt O75914); assay: activity of PAK3(h) at 1.0 µM in the Eurofins Kinase panel; conditions: Compound concentration 1.0 uM
[10] = biological target: cAMP-dependent protein kinase catalytic subunit alpha (Homo sapiens, UniProt P17612); assay: Promega NanoBRET (PRKACA)
[11] = biological target: Serine/threonine-protein kinase PLK4 (Homo sapiens) (UniProt O00444); assay: activity of Plk4(h) at 1.0 µM in the Eurofins Kinase panel; conditions: Compound concentration 1.0 uM
[12] = biological target: Cyclin-dependent kinase-like 2 (Homo sapiens) (UniProt Q92772); assay: activity of CDKL2(h) at 1.0 µM in the Eurofins Kinase panel; conditions: Compound concentration 1.0 uM
Sequence of Cyclin-dependent kinase-like 2 (Homo sapiens) (Q92772 whole entry): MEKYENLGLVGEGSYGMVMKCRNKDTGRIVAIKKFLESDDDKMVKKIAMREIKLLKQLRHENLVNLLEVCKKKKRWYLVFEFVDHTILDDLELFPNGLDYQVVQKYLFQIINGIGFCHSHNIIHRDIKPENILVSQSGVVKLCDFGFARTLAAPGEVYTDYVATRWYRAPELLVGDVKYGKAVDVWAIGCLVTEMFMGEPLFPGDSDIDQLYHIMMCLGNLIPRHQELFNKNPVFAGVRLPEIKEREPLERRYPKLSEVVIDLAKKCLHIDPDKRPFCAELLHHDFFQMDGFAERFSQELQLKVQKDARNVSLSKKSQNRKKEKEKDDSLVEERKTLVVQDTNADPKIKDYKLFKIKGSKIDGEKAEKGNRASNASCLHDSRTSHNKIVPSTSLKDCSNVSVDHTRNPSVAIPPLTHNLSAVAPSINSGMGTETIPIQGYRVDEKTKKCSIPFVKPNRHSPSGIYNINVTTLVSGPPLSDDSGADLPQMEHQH

[13] = biological target: Macrophage colony-stimulating factor 1 receptor (Homo sapiens) (UniProt P07333); assay: activity of Fms(h) at 1.0 µM in the Eurofins Kinase panel; conditions: Compound concentration 1.0 uM
[14] = biological target: Insulin receptor (Homo sapiens) (UniProt P06213); assay: activity of IR(h) at 1.0 µM in the Eurofins Kinase panel; conditions: Compound concentration 1.0 uM
Sequence of Insulin receptor (Homo sapiens) (P06213 28-758 limits assumed): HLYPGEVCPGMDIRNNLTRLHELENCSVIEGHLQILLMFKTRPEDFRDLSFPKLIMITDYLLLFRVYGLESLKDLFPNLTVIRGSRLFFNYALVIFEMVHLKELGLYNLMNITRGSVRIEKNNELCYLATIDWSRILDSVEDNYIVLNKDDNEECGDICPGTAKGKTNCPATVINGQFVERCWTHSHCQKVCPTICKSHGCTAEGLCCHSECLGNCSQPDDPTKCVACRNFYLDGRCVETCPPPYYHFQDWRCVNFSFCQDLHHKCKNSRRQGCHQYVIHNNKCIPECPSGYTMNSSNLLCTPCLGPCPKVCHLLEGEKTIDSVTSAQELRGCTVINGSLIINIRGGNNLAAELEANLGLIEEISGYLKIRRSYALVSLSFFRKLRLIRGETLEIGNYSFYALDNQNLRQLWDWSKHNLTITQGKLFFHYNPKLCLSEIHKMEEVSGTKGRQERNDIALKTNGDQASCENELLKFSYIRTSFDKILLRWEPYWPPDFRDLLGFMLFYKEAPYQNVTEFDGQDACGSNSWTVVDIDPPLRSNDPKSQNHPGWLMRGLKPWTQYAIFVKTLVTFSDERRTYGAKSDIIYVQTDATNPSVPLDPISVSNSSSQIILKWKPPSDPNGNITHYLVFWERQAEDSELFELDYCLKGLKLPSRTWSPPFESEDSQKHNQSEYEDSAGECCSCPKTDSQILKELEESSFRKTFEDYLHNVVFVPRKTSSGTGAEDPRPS
Sequence of Insulin receptor (Homo sapiens) (P06213 763-1382 limits assumed): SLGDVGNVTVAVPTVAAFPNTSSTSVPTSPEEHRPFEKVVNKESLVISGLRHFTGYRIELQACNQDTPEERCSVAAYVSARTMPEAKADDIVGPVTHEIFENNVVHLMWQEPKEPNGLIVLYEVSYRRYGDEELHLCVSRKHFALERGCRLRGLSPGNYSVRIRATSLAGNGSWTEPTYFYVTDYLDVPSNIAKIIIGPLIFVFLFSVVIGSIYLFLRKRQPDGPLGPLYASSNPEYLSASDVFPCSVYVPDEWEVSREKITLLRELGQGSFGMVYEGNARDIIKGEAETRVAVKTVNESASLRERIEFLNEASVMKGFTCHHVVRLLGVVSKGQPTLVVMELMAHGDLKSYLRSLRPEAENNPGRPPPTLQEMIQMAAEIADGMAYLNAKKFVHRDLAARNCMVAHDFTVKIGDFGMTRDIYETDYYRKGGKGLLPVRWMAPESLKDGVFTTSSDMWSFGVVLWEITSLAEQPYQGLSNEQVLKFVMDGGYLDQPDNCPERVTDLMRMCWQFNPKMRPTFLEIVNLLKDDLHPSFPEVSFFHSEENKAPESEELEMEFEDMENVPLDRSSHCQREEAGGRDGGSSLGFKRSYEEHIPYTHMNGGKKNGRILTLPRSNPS

[15] = biological target: Protein kinase C eta type (Homo sapiens) (UniProt P24723); assay: activity of PKCeta(h) at 1.0 µM in the Eurofins Kinase panel; conditions: Compound concentration 1.0 uM
[16] = biological target: Dual specificity protein kinase CLK2 (Homo sapiens) (UniProt P49760); assay: activity of CLK2(h) at 1.0 µM in the Eurofins Kinase panel; conditions: Compound concentration 1.0 uM
[17] = biological target: Tyrosine-protein kinase Fer (Homo sapiens) (UniProt P16591); assay: activity of Fer(h) at 1.0 µM in the Eurofins Kinase panel; conditions: Compound concentration 1.0 uM
[18] = biological target: Serine/threonine-protein kinase Nek4 (Homo sapiens) (UniProt P51957); assay: activity of NEK4(h) at 1.0 µM in the Eurofins Kinase panel; conditions: Compound concentration 1.0 uM
[19] = biological target: Ephrin type-B receptor 4 (Homo sapiens) (UniProt P54760); assay: activity of EphB4(h) at 1.0 µM in the Eurofins Kinase panel; conditions: Compound concentration 1.0 uM
[20] = biological target: Transcription initiation factor TFIID subunit 1-like (Homo sapiens) (UniProt Q8IZX4); assay: activity of TAF1L(h) at 1.0 µM in the Eurofins Kinase panel; conditions: Compound concentration 1.0 uM
[21] = biological target: Serine/threonine-protein kinase 24 (Homo sapiens) (UniProt Q9Y6E0); assay: activity of MST3(h) at 1.0 µM in the Eurofins Kinase panel; conditions: Compound concentration 1.0 uM
[22] = biological target: Tyrosine-protein kinase Srms (Homo sapiens) (UniProt Q9H3Y6); assay: activity of SRMS(h) at 1.0 µM in the Eurofins Kinase panel; conditions: Compound concentration 1.0 uM
[23] = biological target: Serine/threonine-protein kinase Chk1 (Homo sapiens) (UniProt O14757); assay: activity of CHK1(h) at 1.0 µM in the Eurofins Kinase panel; conditions: Compound concentration 1.0 uM
[24] = biological target: Insulin receptor (Homo sapiens) (UniProt P06213); assay: activity of IR(h), activated at 1.0 µM in the Eurofins Kinase panel; conditions: Compound concentration 1.0 uM
[25] = biological target: Protein kinase C theta type (Homo sapiens) (UniProt Q04759); assay: activity of PKCtheta(h) at 1.0 µM in the Eurofins Kinase panel; conditions: Compound concentration 1.0 uM
Sequence of Protein kinase C theta type (Homo sapiens) (Q04759 whole entry, looked up): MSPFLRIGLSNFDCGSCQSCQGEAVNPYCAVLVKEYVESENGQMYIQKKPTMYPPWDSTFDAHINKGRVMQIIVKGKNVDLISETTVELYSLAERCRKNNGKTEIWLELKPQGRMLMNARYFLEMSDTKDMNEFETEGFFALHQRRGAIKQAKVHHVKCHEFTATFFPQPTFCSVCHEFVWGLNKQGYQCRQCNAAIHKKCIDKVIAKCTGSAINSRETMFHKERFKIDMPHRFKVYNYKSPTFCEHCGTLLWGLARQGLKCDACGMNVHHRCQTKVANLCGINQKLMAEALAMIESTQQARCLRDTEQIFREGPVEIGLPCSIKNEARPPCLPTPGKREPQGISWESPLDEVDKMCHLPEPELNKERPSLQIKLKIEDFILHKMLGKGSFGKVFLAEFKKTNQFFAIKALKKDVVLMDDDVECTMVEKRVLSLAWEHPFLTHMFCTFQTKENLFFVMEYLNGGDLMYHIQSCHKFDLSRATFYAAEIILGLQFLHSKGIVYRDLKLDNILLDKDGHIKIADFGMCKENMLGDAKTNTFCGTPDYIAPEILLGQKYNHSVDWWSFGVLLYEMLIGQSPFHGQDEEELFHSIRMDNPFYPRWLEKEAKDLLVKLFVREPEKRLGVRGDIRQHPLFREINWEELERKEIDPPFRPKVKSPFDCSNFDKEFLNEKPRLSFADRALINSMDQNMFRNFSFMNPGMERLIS

[26] = biological target: SRSF protein kinase 1 (Homo sapiens) (UniProt Q96SB4); assay: activity of SRPK1(h) at 1.0 µM in the Eurofins Kinase panel; conditions: Compound concentration 1.0 uM
[27] = biological target: Mitogen-activated protein kinase kinase kinase 11 (Homo sapiens) (UniProt Q16584); assay: activity of MLK3(h) at 1.0 µM in the Eurofins Kinase panel; conditions: Compound concentration 1.0 uM
[28] = biological target: Mitogen-activated protein kinase 11 (Homo sapiens) (UniProt Q15759); assay: activity of SAPK2b(h) at 1.0 µM in the Eurofins Kinase panel; conditions: Compound concentration 1.0 uM
Sequence of Mitogen-activated protein kinase 11 (Homo sapiens) (Q15759 whole entry): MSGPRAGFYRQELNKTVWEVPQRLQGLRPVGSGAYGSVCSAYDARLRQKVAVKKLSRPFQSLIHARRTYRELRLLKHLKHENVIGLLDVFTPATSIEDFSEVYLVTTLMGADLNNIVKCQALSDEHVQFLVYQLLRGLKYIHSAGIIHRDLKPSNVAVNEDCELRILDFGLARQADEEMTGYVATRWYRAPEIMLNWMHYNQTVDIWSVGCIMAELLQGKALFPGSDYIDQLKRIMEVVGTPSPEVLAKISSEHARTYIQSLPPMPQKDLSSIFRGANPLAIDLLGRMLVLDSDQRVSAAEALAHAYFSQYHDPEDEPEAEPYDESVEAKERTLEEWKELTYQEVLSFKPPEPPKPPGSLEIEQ

[29] = biological target: Tyrosine-protein kinase receptor UFO (Homo sapiens) (UniProt P30530); assay: activity of Axl(h) at 1.0 µM in the Eurofins Kinase panel; conditions: Compound concentration 1.0 uM
[30] = biological target: Proto-oncogene tyrosine-protein kinase receptor Ret (Homo sapiens) (UniProt P07949); assay: activity of Ret(h) at 1.0 µM in the Eurofins Kinase panel; conditions: Compound concentration 1.0 uM
[31] = biological target: Platelet-derived growth factor receptor beta (Homo sapiens) (UniProt P09619); assay: activity of PDGFRbeta(h) at 1.0 µM in the Eurofins Kinase panel; conditions: Compound concentration 1.0 uM
[32] = biological target: G protein-coupled receptor kinase 6 (Homo sapiens) (UniProt P43250); assay: activity of GRK6(h) at 1.0 µM in the Eurofins Kinase panel; conditions: Compound concentration 1.0 uM
[33] = biological target: Muscle, skeletal receptor tyrosine-protein kinase (Homo sapiens) (UniProt O15146); assay: activity of MuSK(h) at 1.0 µM in the Eurofins Kinase panel; conditions: Compound concentration 1.0 uM
[34] = biological target: Dual specificity protein kinase CLK1 (Homo sapiens) (UniProt P49759); assay: activity of CLK1(h) at 1.0 µM in the Eurofins Kinase panel; conditions: Compound concentration 1.0 uM
[35] = biological target: Ephrin type-A receptor 2 (Homo sapiens) (UniProt P29317); assay: activity of EphA2(h) at 1.0 µM in the Eurofins Kinase panel; conditions: Compound concentration 1.0 uM
[36] = biological target: Platelet-derived growth factor receptor alpha (Homo sapiens) (UniProt P16234); assay: activity of PDGFRalpha(h) at 1.0 µM in the Eurofins Kinase panel; conditions: Compound concentration 1.0 uM
Sequence of Platelet-derived growth factor receptor alpha (Homo sapiens) (P16234 whole entry): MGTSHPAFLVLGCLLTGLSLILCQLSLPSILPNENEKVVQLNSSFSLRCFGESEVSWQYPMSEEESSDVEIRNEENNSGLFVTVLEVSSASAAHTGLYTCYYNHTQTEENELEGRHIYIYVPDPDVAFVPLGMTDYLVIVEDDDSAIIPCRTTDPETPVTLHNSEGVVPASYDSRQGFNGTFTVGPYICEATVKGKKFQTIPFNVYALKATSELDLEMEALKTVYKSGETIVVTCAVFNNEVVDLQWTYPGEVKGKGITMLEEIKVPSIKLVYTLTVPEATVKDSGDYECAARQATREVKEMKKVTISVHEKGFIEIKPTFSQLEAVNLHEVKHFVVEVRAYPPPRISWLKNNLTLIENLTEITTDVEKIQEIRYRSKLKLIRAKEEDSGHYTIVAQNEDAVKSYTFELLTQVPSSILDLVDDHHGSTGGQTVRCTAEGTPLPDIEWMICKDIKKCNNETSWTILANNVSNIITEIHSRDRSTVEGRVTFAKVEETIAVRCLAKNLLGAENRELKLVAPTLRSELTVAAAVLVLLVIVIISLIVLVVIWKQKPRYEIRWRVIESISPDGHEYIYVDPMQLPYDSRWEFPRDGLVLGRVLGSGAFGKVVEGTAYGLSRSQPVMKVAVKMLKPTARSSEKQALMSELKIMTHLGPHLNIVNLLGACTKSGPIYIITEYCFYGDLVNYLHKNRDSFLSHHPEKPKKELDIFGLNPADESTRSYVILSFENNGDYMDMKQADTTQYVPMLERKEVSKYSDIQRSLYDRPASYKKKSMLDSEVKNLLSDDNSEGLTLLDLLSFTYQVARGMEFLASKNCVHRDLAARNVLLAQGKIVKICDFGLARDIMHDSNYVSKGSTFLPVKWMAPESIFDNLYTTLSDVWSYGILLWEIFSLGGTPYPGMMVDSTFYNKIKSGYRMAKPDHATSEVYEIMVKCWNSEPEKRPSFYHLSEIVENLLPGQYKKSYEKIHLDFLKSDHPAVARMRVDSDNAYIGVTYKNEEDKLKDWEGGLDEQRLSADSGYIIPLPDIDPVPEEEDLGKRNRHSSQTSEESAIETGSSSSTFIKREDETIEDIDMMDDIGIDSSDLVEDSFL

[37] = biological target: Tau-tubulin kinase 2 (Homo sapiens) (UniProt Q6IQ55); assay: activity of TTBK2(h) at 1.0 µM in the Eurofins Kinase panel; conditions: Compound concentration 1.0 uM
[38] = biological target: Serine/threonine-protein kinase N2 (Homo sapiens) (UniProt Q16513); assay: activity of PRK2(h) at 1.0 µM in the Eurofins Kinase panel; conditions: Compound concentration 1.0 uM
[39] = biological target: Ephrin type-B receptor 2 (Homo sapiens) (UniProt P29323); assay: activity of EphB2(h) at 1.0 µM in the Eurofins Kinase panel; conditions: Compound concentration 1.0 uM
Sequence of Ephrin type-B receptor 2 (Homo sapiens) (P29323 whole entry): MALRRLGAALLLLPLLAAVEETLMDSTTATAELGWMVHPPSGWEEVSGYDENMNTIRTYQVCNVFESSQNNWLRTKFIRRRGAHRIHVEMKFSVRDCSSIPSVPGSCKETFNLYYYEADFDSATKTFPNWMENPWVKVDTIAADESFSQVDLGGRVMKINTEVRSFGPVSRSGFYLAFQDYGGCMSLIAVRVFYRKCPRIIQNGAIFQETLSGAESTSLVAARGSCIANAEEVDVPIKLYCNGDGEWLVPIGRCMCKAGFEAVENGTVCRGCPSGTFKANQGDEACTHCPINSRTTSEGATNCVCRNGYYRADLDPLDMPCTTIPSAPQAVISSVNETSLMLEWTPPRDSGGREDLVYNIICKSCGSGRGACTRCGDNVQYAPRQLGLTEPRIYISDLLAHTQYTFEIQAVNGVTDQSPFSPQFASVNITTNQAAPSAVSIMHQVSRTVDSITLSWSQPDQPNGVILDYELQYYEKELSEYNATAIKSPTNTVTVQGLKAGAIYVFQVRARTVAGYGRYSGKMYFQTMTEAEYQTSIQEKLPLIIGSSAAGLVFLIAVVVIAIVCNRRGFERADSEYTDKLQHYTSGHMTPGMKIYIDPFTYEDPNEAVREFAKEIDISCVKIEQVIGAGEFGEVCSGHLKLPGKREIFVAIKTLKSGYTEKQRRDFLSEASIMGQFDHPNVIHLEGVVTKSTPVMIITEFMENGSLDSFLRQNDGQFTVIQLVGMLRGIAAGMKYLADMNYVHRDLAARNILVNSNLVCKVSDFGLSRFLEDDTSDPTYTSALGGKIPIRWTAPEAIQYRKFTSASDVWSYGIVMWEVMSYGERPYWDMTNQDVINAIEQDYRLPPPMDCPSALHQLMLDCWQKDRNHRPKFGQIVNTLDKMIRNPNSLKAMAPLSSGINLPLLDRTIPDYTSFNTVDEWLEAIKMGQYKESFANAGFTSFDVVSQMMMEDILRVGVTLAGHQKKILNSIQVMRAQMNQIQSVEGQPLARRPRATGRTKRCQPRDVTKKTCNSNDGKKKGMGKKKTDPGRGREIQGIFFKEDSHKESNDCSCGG

[40] = biological target: Serine/threonine-protein kinase ULK2 (Homo sapiens) (UniProt Q8IYT8); assay: activity of ULK2(h) at 1.0 µM in the Eurofins Kinase panel; conditions: Compound concentration 1.0 uM

- activity [1]: 105%
- activity [2]: 97%
- activity [3]: 110%
- activity [4]: 97%
- activity [5]: 83%
- activity [6]: 97%
- activity [7]: 92%
- activity [8]: 97%
- activity [9]: 89%
- IC50 [10]: > 10 µM (not active)
- activity [11]: 92%
- activity [12]: 80%
- activity [13]: 115%
- activity [14]: 94%
- activity [15]: 118%
- activity [16]: 106%
- activity [17]: 103%
- activity [18]: 90%
- activity [19]: 107%
- activity [20]: 101%
- activity [21]: 85%
- activity [22]: 86%
- activity [23]: 108%
- activity [24]: 92%
- activity [25]: 103%
- activity [26]: 95%
- activity [27]: 91%
- activity [28]: 90%
- activity [29]: 91%
- activity [30]: 97%
- activity [31]: 105%
- activity [32]: 95%
- activity [33]: 96%
- activity [34]: 88%
- activity [35]: 95%
- activity [36]: 116%
- activity [37]: 94%
- activity [38]: 92%
- activity [39]: 96%
- activity [40]: 98%
Compound: Cc1cc2c(-c3ccc(NC(=O)[C@H](N)CC(C)(C)C)cc3C)ccnc2[nH]1
